# Patent US11834470B2, “4-thioribose NAD analogues and methods of synthesizing and using the same” (University of Southern California, priority 2018, dated 2023)
# What was measured:
# Format in all cases: biochemical
# human CD38 [1] = biological target: T1, human CD38 (Homo sapiens, UniProt P28907, N100D/N164A/N209D/N219D); assay: substrate activity with human CD38, overnight incubation, HPLC analysis; conditions: 1 mM compound, 13.4 nM recombinant human CD38, 50 mM MES pH 6.5, room temperature overnight
# T1 construct: His6 (N, cleaved yes); TEV protease cleavage site (N, cleaved yes); made in house; host or cells: Expi293 cells, secreted, transient transfection (pFuse vector)
# T1 sequence (P28907 45-300 N100D/N164A/N209D/N219D): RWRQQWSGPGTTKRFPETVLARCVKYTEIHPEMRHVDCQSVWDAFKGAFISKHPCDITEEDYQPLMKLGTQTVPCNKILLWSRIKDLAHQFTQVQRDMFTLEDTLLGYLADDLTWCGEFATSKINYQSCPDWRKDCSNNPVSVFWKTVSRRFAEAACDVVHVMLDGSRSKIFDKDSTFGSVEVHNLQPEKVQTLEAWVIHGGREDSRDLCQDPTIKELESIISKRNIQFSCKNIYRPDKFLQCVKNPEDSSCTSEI
# Procedure: FIGS. 15A-15D: Activity of NAD^+ and S-NAD^+ for human CD38. HPLC analysis of substrate activities of NAD^+ (FIG. 15A-15B) and S-NAD^+ (FIG. 15C-15D) with human CD38 as measured by UV absorbance at 260 nm. 1 mM NAD^+ or S-NAD^+ was incubated without and with CD38 at RT overnight, followed by HPLC analysis.
# 1 mM S-NAD^+ and NAD^+ in 50 mM MES, pH 6.5 were incubated with 13.4 nM recombinant human CD38 for overnight at room temperature, followed HPLC analysis of the reaction mixtures. HPLC analysis was performed with a semipreparative C18 Kinetex column (5 μm, 100 Å, 150×10.0 mm, from Phenomenex Inc, Torrance, CA) using following method: mobile phase A: 0.1% formic acid (aq); mobile phase B: 0.1% formic acid in methanol; flow rate: 2.0 ml/min; 0-2 min: 0-4% B, 2-4 min: 4-10% B; 4-6 min: 10-20% B; 6-9 min: 20% B; 9-12 min: 20-50% B; and 12-14 min: 50-0% B.
# [2] = biological target: T2, Bovine glutamate dehydrogenase (GDH) (Bos taurus, UniProt P00366); assay: substrate activity with redox enzyme GDH (UV 340 nm and HPLC); conditions: for HPLC analysis of reduction by bovine GDH: 0.5 mM compound, 2 mM L-glutamate, 20 unit/ml GDH, 30 minutes, peaks confirmed by mass spectrometry
# T2 construct: purchased Sigma-Aldrich (St. Louis, MO)
# Procedure: (§1) Bovine glutamate dehydrogenase (GDH) and Leuconostoc mesenteroides glucose-6-phosphate dehydrogenase (G6PDH) were purchased from Sigma-Aldrich (St. Louis, MO) and used for determining the substrate activities of NAD^+ and S-NAD^+. To examine substrate activity with bovine GDH, 0.1 mM NAD^+ or S-NAD^+ was incubated with 1 mM L-glutamate and 0.1 unit/ml GDH in buffer containing 2 mM DTT, 50 mM Tris, pH 7.5 for 15 minutes at room temperature. To determine substrate activity with G6PDH, 0.5 mM NAD^+ or S-NAD^+ was incubated with 5 mM D-glucose 6-phosphate and 0.01 unit/ml G6PDH in buffer containing 5 mM MgCl2, 50 mM Tris, pH 7.5 for 15 minutes at room temperature. Formation of NADH and S-NADH were monitored by UV absorbance at 340 nm under kinetic mode using a NanoDrop 2000C spectrophotometer (Thermo Scientific, MA).
# (§2) To examine the bovine GDH-catalyzed reactions, 0.5 mM NAD^+ or S-NAD^+ was incubated with 2 mM L-glutamate and 20 unit/ml GDH in buffer containing 2 mM DTT, 50 mM Tris, pH 7.5 for 30 minutes at room temperature, followed by HPLC analysis with detection of UV absorbance at 340 nm. To evaluate the L. mesenteroides G6PDH-catalyzed reactions, 0.5 mM NAD^+ or S-NAD^+ was incubated with 5 mM D-glucose 6-phosphate and 10 unit/ml G6PDH in buffer containing 5 mM MgCl2, 50 mM Tris, pH 7.5 for 30 minutes at room temperature, followed by HPLC analysis with detection of UV absorbance at 340 nm. The HPLC method used for analysis of reactions by GDH and G6PDH was the same as described above.
# [3] = biological target: T3, Leuconostoc mesenteroides glucose-6-phosphate dehydrogenase (G6PDH) (Leuconostoc mesenteroides, UniProt P11411); assay: substrate activity with redox enzyme G6PDH (UV 340 nm and HPLC); conditions: 0.5 mM compound, 5 mM D-glucose 6-phosphate; for HPLC analysis of reduction by L. mesenteroides G6PDH: 10 unit/ml G6PDH, 30 minutes, peaks confirmed by mass spectrometry
# T3 construct: purchased Sigma-Aldrich (St. Louis, MO)
# Procedure: as §1, §2
# human NRK = assay: enzymatic conversion by purified NRK1 and NMNAT1 with ATP, HPLC: NRK step; conditions: 2 mM S-NR, 6 mM ATP, 5 μM NRK1 and 5 μM NMNAT1, RT; relative to NR
# Procedure: (§3) FIGS. 4A-4D: HPLC analysis of enzymatic synthesis of S-NAD^+ by the purified NRK1 and NMNAT1 as measured by UV absorbance at 260 nm. 2 mM S—NR was incubated with 6 mM ATP and 5 μM NRK1 and 5 μM NMNAT1 at RT for 0 h (FIG. 4A), 0.5 h (FIG. 4B), 1 h (FIG. 4C), and 4 h (FIG. 4D), followed by HPLC analysis.
# (§4) Purified S—NR (0.5 mg in the form of bromide salt) was incubated with 6 mM ATP, 5 uM of purified NRK1 and NMNAT1 at the final concentration of 2 mM at room temperature for overnight in the reaction buffer (50 mM Tris, 100 mM NaCl, 12 mM MgCl2, 1 mM DTT, and pH 7.5). After centrifugation at 4,000 g for 5 minutes, supernatants were analyzed by HPLC and the fraction containing S-NAD^+ (0.68 mg, 70%) were pooled and confirmed by both NMR and mass spectrometry. All analysis and purifications on HPLC were performed with a semipreparative C18 Kinetex column (5 μm, 100 Å, 150×10.0 mm, from Phenomenex Inc, Torrance, CA) using the following method, mobile phase A: 0.1% formic acid (aq); mobile phase B: 0.1% formic acid in methanol; flow rate: 2.0 ml/min; 0-2 min: 0-4% B, 2-4 min: 4-10% B; 4-6 min: 10-20% B; 6-9 min: 20% B; 9-12 min: 20-50% B; and 12-14 min: 50-0% B.
# (§5) Human NRK1 and NMNAT1 were then expressed and purified from Escherichia coli (FIG. 1). In vitro biosynthesis of NAD^+ and S-NAD^+ from NR and S—NR, respectively, were carried out using purified NRK1 and NMNAT1. […]
# human CD38 [4] = biological target: T1, human CD38; assay: continuous fluorescence-based CD38 cyclase activity assay with NGD+ as substrate (cGDPR formation)
# Procedure: Recombinant human CD38 (8 nM) was incubated with 50 μM NGD^+ in the presence of varied concentrations of S-NAD^+. CD38 cyclase activities were monitored on the basis of the formation of fluorescent cGDPR as measured at 410 nm.
# NGD^+ (Sigma-Aldrich, MO) was used as a substrate to determine ADP-ribosyl cyclase activity of purified CD38, because cyclic GDP-ribose (cGDPR) product is characterized by distinctive UV absorbance at 295 nm and fluorescence emission at 410 nm (excitation at 300 nm).^5 To characterize kinetic parameters, reactions were initiated by additions of recombinant CD38 (8.3 nM final) into assay wells with various concentrations of NGD^+ in 20 mM MES, pH 6.5, followed by monitoring the reactions through fluorescence at 410 nm (excitation at 300 nm) to determine initial reaction rates. Inhibition activities of S-NAD^+ were determined by carried out enzymatic formation of cyclic GDP-ribose in the presence of S-NAD^+. […] All reactions were carried out in black 96-well plates and the resulting fluorescence was measured using a BioTek Synergy H1 Hybrid Multi-Mode Microplate Reader (BioTek, VT) in the kinetic mode. The Km of NGD^+ for CD38 was calculated by fitting data with Michaelis-Menten function implemented in GraphPad Prism (La Jolla, CA). […]
# human NMNAT = biological target: T4, human NMNAT (Homo sapiens, UniProt Q9HAN9); assay: enzymatic conversion by purified NRK1 and NMNAT1 with ATP, HPLC: NMNAT step; conditions: 6 mM ATP, 5 μM NRK1 and 5 μM NMNAT1, RT; relative to NMN
# T4 construct: made in house; host or cells: E. coli BL21 (DE3), pET-28a(+)
# Procedure: as §3, §4, §5
# T2 sequence (P00366 58-558): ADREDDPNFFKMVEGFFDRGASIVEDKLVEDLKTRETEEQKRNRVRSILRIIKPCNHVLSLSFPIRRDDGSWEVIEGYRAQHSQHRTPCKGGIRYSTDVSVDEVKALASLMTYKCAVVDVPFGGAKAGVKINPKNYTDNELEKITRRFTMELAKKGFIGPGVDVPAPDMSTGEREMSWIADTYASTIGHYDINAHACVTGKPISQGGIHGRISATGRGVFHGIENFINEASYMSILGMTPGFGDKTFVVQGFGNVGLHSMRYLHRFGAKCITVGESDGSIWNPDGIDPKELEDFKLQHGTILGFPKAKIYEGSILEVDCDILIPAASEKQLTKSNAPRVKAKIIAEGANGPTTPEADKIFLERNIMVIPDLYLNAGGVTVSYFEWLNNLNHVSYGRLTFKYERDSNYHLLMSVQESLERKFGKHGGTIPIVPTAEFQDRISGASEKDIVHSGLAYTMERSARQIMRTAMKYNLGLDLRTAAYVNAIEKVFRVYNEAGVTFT
# T3 sequence (P11411 whole entry): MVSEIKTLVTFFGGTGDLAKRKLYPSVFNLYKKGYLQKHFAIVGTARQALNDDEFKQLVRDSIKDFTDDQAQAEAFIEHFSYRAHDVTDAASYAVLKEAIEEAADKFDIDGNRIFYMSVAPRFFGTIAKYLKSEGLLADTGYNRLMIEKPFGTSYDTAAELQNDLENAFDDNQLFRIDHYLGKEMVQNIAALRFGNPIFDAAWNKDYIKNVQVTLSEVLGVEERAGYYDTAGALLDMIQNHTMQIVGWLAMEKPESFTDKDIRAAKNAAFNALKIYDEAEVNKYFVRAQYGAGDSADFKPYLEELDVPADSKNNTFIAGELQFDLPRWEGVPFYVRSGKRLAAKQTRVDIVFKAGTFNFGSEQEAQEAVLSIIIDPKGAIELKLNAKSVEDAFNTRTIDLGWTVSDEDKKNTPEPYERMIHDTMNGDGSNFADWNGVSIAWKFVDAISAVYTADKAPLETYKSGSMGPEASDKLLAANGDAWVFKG
# T4 sequence (Q9HAN9 with tags, fused parts or gaps): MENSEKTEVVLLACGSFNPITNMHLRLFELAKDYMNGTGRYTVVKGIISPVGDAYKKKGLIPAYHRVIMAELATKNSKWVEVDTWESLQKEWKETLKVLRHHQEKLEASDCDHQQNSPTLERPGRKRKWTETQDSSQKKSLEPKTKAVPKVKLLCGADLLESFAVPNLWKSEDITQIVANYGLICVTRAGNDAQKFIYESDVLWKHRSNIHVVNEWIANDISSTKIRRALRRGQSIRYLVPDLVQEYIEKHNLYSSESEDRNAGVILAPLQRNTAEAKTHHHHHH
Structure (SMILES),fate of compound after overnight reaction with CD38 (HPLC) (human CD38 [1]),HPLC analysis of reduction by bovine GDH [2],HPLC analysis of reduction by L. mesenteroides G6PDH [3],other results
"NC(=O)c1ccc[n+]([C@@H]2O[C@H](COP(=O)([O-])OP(=O)(O)OC[C@H]3O[C@@H](n4cnc5c(N)ncnc54)[C@H](O)[C@@H]3O)[C@@H](O)[C@H]2O)c1 [NAD^+, Nicotinamide adenine dinucleotide, reference compound]",completely consumed,enzyme-dependent formation of NADH and S-NADH peaks,enzyme-dependent formation of NADH and S-NADH peaks,
"NC(=O)c1ccc[n+]([C@@H]2S[C@H](CO)[C@@H](O)[C@H]2O)c1.[Br-] [S—NR, 3-carbamoyl-1-((2R,3R,4S,5R)-3,4-dihydroxy-5-(hydroxymethyl)tetrahydrothiophen-2-yl)pyridin-1-ium]",,,,effect of sulfur substitution on substrate activity for human NRK (human NRK): no effect
"NC(=O)c1ccc[n+]([C@@H]2S[C@H](COP(=O)(O)OP(=O)([O-])OC[C@H]3O[C@@H](n4cnc5c(N)ncnc54)[C@H](O)[C@@H]3O)[C@@H](O)[C@H]2O)c1 (stereo in doubt) [S-NAD^+, 4′-thioribose NAD+]",still remained unchanged,enzyme-dependent formation of NADH and S-NADH peaks,enzyme-dependent formation of NADH and S-NADH peaks,"slow-onset inhibition of CD38 (human CD38 [4]; direct competition assays with extended incubation or preincubating CD38 with S-NAD+): no slow-onset inhibition was observed; reduction by bovine GDH monitored by UV absorbance at 340 nm ([2]; 0.1 mM compound, 1 mM L-glutamate, 0.1 unit/ml GDH, 15 minutes, room temperature): characteristic increases of UV absorbance at 340 nm; reduction by L. mesenteroides G6PDH monitored by UV absorbance at 340 nm ([3]; 0.01 unit/ml G6PDH, 15 minutes, room temperature): characteristic increases of UV absorbance at 340 nm"
"NC(=O)c1ccc[n+](C2SC(COP(=O)([O-])O)C(O)C2O)c1 (stereo not drawn) [S-NMN, 4′-thioribose nicotinamide mononucleotide]",,,,effect of sulfur substitution on substrate activity for human NMNAT (human NMNAT): no effect
"NC(=O)c1ccc[n+]([C@@H]2O[C@H](COP(=O)([O-])OP(=O)(O)OC[C@H]3O[C@@H](n4cnc5c(=O)[nH]c(N)nc54)[C@H](O)[C@@H]3O)[C@@H](O)[C@H]2O)c1 [NGD^+, nicotinamide guanine dinucleotide, reference compound]",,,,"Km (human CD38 [4]; 8.3 nM recombinant CD38, 20 mM MES pH 6.5, fluorescence at 410 nm): 8.5 ± 0.6 µM"
